Source: ChEMBL document CHEMBL3627608, “Crystal structures of human RIP2 kinase catalytic domain complexed with ATP-competitive inhibitors: Foundations for understanding inhibitor selectivity” (Bioorg Med Chem, 2015)

Experiments:
[1] = molecular target: T1, Serine/threonine-protein kinase DCLK2 (Homo sapiens) (UniProt Q8N568); assay: Inhibition of DCAMKL2 (unknown origin) at 10 uM after 120 mins P33 radiolabeled kinase activity assay
T1 sequence (whole entry): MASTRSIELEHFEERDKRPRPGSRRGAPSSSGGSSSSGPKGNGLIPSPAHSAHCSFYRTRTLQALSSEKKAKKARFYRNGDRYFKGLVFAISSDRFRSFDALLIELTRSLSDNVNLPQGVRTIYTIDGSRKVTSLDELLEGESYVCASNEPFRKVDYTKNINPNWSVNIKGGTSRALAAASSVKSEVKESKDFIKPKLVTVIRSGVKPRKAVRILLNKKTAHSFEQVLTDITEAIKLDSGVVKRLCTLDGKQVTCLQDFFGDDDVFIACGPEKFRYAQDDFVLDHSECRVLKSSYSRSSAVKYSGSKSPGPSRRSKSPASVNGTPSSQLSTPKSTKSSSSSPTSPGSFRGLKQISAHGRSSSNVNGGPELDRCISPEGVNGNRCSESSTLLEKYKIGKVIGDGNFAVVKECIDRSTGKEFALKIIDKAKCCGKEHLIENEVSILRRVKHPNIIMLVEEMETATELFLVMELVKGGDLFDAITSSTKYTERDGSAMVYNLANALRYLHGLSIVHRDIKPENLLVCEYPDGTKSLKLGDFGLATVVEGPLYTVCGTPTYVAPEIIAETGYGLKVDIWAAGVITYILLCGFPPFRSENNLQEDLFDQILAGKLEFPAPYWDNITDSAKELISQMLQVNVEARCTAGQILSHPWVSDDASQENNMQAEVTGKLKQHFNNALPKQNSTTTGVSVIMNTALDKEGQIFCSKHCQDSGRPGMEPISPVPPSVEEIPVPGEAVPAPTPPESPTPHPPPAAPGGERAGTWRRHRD

[2] = molecular target: Epidermal growth factor receptor (Homo sapiens) (UniProt P00533); assay: Inhibition of EGFR (unknown origin) at 10 uM after 120 mins P33 radiolabeled kinase activity assay
[3] = molecular target: MAP kinase-activated protein kinase 2 (Homo sapiens) (UniProt P49137); assay: Inhibition of MAPKAPK2 (unknown origin) at 10 uM after 120 mins P33 radiolabeled kinase activity assay
[4] = molecular target: T2, NUAK family SNF1-like kinase 2 (Homo sapiens) (UniProt Q9H093); assay: Inhibition of SNARK (unknown origin) at 10 uM after 120 mins P33 radiolabeled kinase activity assay
T2 sequence (whole entry): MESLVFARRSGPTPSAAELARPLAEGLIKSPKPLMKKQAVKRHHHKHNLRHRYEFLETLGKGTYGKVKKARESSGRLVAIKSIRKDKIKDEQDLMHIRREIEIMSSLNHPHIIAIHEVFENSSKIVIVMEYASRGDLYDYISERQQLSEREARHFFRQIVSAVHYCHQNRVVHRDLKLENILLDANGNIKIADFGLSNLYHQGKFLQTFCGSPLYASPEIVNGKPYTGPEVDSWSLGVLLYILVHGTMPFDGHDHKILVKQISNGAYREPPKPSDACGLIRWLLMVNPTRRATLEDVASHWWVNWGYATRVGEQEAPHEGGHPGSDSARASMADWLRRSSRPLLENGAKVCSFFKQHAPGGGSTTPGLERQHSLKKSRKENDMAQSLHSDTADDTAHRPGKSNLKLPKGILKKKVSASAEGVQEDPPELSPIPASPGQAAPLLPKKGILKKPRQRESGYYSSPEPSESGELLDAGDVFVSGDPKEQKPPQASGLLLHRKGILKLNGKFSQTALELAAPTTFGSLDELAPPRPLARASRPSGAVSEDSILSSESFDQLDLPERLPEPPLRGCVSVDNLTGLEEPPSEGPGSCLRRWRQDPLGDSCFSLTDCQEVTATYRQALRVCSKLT

[5] = molecular target: Serine/threonine-protein kinase 38-like (Homo sapiens) (UniProt Q9Y2H1); assay: Inhibition of STK38L (unknown origin) at 10 uM after 120 mins P33 radiolabeled kinase activity assay
[6] = molecular target: T3, Non-receptor tyrosine-protein kinase TNK1 (Homo sapiens) (UniProt Q13470); assay: Inhibition of TNK1 (unknown origin) at 10 uM after 120 mins P33 radiolabeled kinase activity assay
T3 sequence (whole entry): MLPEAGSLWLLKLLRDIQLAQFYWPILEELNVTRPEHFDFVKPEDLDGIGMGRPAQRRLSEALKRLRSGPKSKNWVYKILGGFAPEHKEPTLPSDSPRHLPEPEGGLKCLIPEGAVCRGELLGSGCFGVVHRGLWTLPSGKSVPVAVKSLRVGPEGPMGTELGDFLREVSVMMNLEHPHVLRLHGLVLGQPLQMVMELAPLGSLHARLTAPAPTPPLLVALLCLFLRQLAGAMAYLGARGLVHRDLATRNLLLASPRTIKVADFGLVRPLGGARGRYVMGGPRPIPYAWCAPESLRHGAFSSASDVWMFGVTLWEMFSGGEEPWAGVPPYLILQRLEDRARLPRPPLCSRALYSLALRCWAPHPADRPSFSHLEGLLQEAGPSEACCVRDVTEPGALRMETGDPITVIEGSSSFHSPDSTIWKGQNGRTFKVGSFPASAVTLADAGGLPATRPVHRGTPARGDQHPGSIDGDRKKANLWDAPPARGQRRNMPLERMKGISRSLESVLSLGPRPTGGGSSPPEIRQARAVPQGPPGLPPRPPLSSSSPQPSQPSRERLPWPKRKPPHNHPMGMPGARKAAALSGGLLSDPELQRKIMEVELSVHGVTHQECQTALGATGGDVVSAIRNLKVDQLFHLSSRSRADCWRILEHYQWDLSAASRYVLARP

[7] = molecular target: T4, Serine/threonine-protein kinase VRK1 (Homo sapiens) (UniProt Q99986); assay: Inhibition of VRK1 (unknown origin) at 10 uM after 120 mins P33 radiolabeled kinase activity assay
T4 sequence (whole entry): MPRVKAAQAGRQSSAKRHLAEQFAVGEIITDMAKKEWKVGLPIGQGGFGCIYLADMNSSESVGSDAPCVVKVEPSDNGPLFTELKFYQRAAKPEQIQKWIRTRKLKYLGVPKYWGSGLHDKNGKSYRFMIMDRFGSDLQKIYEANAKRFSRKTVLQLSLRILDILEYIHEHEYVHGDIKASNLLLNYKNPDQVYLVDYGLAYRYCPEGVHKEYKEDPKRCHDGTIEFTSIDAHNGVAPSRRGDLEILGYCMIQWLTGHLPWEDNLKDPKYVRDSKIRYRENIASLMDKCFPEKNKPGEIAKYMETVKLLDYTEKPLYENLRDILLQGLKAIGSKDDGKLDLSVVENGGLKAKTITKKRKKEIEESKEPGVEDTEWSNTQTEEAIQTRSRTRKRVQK

[8] = molecular target: Tyrosine-protein kinase BTK (Homo sapiens) (UniProt Q06187); assay: Inhibition of BTK (unknown origin) at 10 uM after 120 mins P33 radiolabeled kinase activity assay
Chain of Tyrosine-protein kinase BTK (Homo sapiens) (Q06187 whole entry): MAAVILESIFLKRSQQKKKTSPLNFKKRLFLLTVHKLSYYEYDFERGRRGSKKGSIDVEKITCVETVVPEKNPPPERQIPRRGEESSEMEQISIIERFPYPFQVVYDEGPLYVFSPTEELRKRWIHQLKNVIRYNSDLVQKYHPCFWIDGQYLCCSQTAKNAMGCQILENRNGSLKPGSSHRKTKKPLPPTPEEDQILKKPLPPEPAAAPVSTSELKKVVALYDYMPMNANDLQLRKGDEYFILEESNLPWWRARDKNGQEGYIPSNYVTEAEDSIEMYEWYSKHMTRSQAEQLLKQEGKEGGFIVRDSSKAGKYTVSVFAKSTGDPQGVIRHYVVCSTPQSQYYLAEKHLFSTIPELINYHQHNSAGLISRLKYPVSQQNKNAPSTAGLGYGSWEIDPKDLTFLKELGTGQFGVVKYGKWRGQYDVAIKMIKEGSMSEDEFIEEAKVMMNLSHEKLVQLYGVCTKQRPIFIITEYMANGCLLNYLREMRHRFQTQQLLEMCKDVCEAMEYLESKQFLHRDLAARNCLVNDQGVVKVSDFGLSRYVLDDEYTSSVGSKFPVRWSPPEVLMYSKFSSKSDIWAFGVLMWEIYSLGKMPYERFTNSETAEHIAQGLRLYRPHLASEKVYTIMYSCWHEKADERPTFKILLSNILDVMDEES

Chain of Epidermal growth factor receptor (Homo sapiens) (P00533 whole entry): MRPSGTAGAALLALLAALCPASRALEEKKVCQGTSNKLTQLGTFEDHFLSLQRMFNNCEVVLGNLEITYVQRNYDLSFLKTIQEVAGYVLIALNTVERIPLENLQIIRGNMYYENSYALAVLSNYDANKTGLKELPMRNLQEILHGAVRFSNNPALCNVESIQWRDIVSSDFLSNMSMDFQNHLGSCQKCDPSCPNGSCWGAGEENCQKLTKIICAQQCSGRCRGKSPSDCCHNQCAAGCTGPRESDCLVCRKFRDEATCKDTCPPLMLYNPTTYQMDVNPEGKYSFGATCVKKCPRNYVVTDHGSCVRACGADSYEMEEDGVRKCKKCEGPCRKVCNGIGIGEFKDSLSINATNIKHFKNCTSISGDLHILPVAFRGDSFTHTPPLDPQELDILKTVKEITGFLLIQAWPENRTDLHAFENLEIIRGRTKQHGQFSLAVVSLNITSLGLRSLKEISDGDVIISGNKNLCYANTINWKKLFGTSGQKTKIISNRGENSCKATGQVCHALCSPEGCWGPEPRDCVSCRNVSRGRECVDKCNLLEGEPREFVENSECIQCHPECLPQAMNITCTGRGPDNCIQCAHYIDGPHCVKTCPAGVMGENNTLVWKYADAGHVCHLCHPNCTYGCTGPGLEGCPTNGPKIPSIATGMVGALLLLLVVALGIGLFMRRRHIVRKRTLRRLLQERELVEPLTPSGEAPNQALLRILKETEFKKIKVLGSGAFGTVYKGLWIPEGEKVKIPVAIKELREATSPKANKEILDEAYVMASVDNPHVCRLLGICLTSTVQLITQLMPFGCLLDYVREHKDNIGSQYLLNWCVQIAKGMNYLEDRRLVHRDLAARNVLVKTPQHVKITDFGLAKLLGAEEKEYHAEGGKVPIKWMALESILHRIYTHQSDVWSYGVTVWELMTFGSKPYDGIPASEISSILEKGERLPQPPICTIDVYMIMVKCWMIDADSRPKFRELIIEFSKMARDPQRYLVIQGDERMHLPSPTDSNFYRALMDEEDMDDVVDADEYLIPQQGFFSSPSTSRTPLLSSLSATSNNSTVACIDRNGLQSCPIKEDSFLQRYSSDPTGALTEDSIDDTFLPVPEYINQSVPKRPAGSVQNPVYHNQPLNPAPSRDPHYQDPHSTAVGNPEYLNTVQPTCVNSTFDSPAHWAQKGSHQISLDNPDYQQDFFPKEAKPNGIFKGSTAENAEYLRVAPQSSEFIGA
Chain of MAP kinase-activated protein kinase 2 (Homo sapiens) (P49137 whole entry, looked up): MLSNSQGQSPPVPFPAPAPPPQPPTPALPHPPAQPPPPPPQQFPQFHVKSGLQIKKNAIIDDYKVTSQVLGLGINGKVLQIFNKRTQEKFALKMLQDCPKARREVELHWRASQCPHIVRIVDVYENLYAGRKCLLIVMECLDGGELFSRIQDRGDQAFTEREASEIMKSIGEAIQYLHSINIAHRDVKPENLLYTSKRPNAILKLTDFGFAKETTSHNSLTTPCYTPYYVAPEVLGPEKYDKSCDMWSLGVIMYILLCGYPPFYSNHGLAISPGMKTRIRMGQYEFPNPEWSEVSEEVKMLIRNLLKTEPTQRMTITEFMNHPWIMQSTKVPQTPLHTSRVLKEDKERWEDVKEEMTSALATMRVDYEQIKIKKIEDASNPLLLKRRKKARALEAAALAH
Chain of Serine/threonine-protein kinase 38-like (Homo sapiens) (Q9Y2H1 2-464 limits assumed): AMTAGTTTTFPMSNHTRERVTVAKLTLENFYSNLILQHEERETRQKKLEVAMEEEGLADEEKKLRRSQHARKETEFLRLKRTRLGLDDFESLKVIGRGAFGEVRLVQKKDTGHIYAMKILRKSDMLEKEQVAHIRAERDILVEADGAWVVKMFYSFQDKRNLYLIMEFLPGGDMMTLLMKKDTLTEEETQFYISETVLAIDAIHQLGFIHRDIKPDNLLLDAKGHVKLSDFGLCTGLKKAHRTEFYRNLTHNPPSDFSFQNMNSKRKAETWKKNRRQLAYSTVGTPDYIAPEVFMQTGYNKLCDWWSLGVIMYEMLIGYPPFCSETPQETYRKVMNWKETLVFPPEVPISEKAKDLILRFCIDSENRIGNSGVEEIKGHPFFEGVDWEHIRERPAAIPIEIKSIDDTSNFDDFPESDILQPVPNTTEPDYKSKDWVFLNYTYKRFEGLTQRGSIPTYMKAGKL

Row | Compound | inhibition [1] | inhibition [2] | inhibition [3] | inhibition [4] | inhibition [5] | inhibition [6] | inhibition [7] | inhibition [8]
1 | COCCNC(=O)c1ccc2c(c1)nc(-c1cnc(-c3ccc(Cl)cc3)[nH]1)n2CCOC | -0.71% | 7.68% | 11.5% | 2.98% | 7.36% | 22.5% | 3.79% | 19.4%
2 | CS(=O)(=O)c1cccc(Nc2nccc(-c3sc(N4CCOCC4)nc3-c3cccc(NS(=O)(=O)c4c(F)cccc4F)c3)n2)c1 | -1.11% | 88% | 10.7% | 2.62% | 22.4% | 95.2% | 15.4% | 96%
3 | CC(C)(C)c1cc(NC(=O)Nc2ccc(Oc3ccncc3)cc2)no1 | 2.04% | 6.23% | 11% | -1.05% | 33.7% | 89% | 14% | 20.3%
